Patent US7803930B2, “Antisense modulation of apolipoprotein B-expression” (Isis Pharmaceuticals, Inc., priority 2002, dated 2010)
In the oligonucleotide strings, read from the 5' end, every base follows the letter of its sugar. An asterisk marks phosphorothioate; unmarked linkages are phosphodiester. Other units and linkages are bracketed, terminal groups are in braces. A string of capitals states the bases alone. e = 2'-O-(2-methoxyethyl) (MOE); [5mC] = 5-methylcytosine; d = 2'-deoxy (DNA)

System: human apolipoprotein B mRNA
Experiment: Inhibition of human apolipoprotein B mRNA levels in HepG2 cells, quantitative real-time PCR
Format: cell-based
Details: HepG2 cells treated with 150 nM of compound; averages from two experiments; quantitative real-time PCR
Protocol: The human hepatoblastoma cell line HepG2 was obtained from the American Type Culture Collection (Manassas, Va.). HepG2 cells were routinely cultured in Eagle's MEM supplemented with 10% fetal calf serum, non-essential amino acids, and 1 mM sodium pyruvate (Gibco/Life Technologies, Gaithersburg, Md.). Cells were routinely passaged by trypsinization and dilution when they reached 90% confluence. Cells were seeded into 96-well plates (Falcon-Primaria #3872) at a density of 7000 cells/well for use in RT-PCR analysis.
When cells reached 80% confluency, they were treated with oligonucleotide. For cells grown in 96-well plates, wells were washed once with 200 μL OPTI-MEM™-1 reduced-serum medium (Gibco BRL) and then treated with 130 μL of OPTI-MEM™-1 containing 3.75 μg/mL LIPOFECTIN™ (Gibco BRL) and the desired concentration of oligonucleotide. After 4-7 hours of treatment, the medium was replaced with fresh medium. Cells were harvested 16-24 hours after oligonucleotide treatment.
Quantitation of apolipoprotein B mRNA levels was determined by real-time quantitative PCR using the ABI PRISM™ 7700 Sequence Detection System (PE-Applied Biosystems, Foster City, Calif.) according to manufacturer's instructions. This is a closed-tube, non-gel-based, fluorescence detection system which allows high-throughput quantitation of polymerase chain reaction (PCR) products in real-time. As opposed to standard PCR, in which amplification products are quantitated after the PCR is completed, products in real-time quantitative PCR are quantitated as they accumulate. This is accomplished by including in the PCR reaction an oligonucleotide probe that anneals specifically between the forward and reverse PCR primers, and contains two fluorescent dyes. A reporter dye (e.g., JOE, FAM, or VIC, obtained from either Operon Technologies Inc., Alameda, Calif. or PE-Applied Biosystems, Foster City, Calif.) is attached to the 5′ end of the probe and a quencher dye (e.g., TAMRA, obtained from either Operon Technologies Inc., Alameda, Calif. or PE-Applied Biosystems, Foster City, Calif.) is attached to the 3′ end of the probe. When the probe and dyes are intact, reporter dye emission is quenched by the proximity of the 3′ quencher dye. During amplification, annealing of the probe to the target sequence creates a substrate that can be cleaved by the 5′-exonuclease activity of Taq polymerase. […] With each cycle, additional reporter dye molecules are cleaved from their respective probes, and the fluorescence intensity is monitored at regular intervals by laser optics built into the ABI PRISM™ 7700 Sequence Detection System. In each assay, a series of parallel reactions containing serial dilutions of mRNA from untreated control samples generates a standard curve that is used to quantitate the percent inhibition after antisense oligonucleotide treatment of test samples.
PCR reagents were obtained from PE-Applied Biosystems, Foster City, Calif. RT-PCR reactions were carried out by adding 25 μL PCR cocktail (1× TAQMAN™ buffer A, 5.5 mM MgCl2, 300 μM each of DATP, dCTP and dGTP, 600 μM of dUTP, 100 nM each of forward primer, reverse primer, and probe, 20 Units RNAse inhibitor, 1.25 Units AMPLITAQ GOLD™, and 12.5 Units MuLV reverse transcriptase) to 96 well plates containing 25 μL total RNA solution. The RT reaction was carried out by incubation for 30 minutes at 48° C. Following a 10 minute incubation at 95° C. to activate the AMPLITAQ GOLD™, 40 cycles of a two-step PCR protocol were carried out: 95° C. for 15 seconds (denaturation) followed by 60° C. for 1.5 minutes (annealing/extension).
Gene target quantities obtained by real time RT-PCR are normalized using either the expression level of GAPDH, a gene whose expression is constant, or by quantifying total RNA using RiboGreen™ (Molecular Probes, Inc. Eugene, Oreg.). GAPDH expression is quantified by real time RT-PCR, by being run simultaneously with the target, multiplexing, or separately. […]

Substance	% INHIB (inhibition of human apolipoprotein B mRNA levels)
270985 (antisense eT*eT*e[5mC]*e[5mC]*eT*d[5mC]*dT*dT*d[5mC]*dG*dG*d[5mC]*d[5mC]*d[5mC]*dT*eG*eG*e[5mC]*eG*e[5mC]) [compound 270985]	75%
270986 (antisense e[5mC]*eT*e[5mC]*e[5mC]*eA*d[5mC]*dT*dG*dG*dA*dA*d[5mC]*dT*d[5mC]*dT*e[5mC]*eA*eG*e[5mC]*e[5mC]) [compound 270986]	0%

Same assay, conditions: Table 1; HepG2 cells, 150 nM; averages from two experiments

Substance	% INHIB
147780 (antisense e[5mC]*e[5mC]*eG*e[5mC]*eA*dG*dG*dT*d[5mC]*d[5mC]*d[5mC]*dG*dG*dT*dG*eG*eG*eA*eA*eT) [compound 147780]	40%
147781 (antisense eA*e[5mC]*e[5mC]*eG*eA*dG*dA*dA*dG*dG*dG*d[5mC]*dA*d[5mC]*dT*e[5mC]*eA*eG*e[5mC]*e[5mC]) [compound 147781]	35%
147782 (antisense eG*e[5mC]*e[5mC]*eT*e[5mC]*dG*dG*d[5mC]*d[5mC]*dT*d[5mC]*dG*d[5mC]*dG*dG*e[5mC]*e[5mC]*e[5mC]*eT*eG) [compound 147782]	67%
147784 (antisense e[5mC]*eA*eG*e[5mC]*eG*d[5mC]*d[5mC]*dA*dG*d[5mC]*dA*dG*d[5mC]*dG*d[5mC]*e[5mC]*eA*eG*e[5mC]*eA) [compound 147784]	70%
147785 (antisense eG*e[5mC]*e[5mC]*e[5mC]*eG*d[5mC]*d[5mC]*dA*dG*d[5mC]*dA*dG*d[5mC]*dA*dG*e[5mC]*eA*eG*e[5mC]*eA) [compound 147785]	29%
147786 (antisense e[5mC]*eT*eT*eG*eA*dA*dT*d[5mC]*dA*dG*d[5mC]*dA*dG*dT*d[5mC]*e[5mC]*e[5mC]*eA*eG*eG) [compound 147786]	34%
147788 (antisense eT*eT*eT*e[5mC]*eT*dG*dT*dT*dG*d[5mC]*d[5mC]*dA*d[5mC]*dA*dT*eT*eG*e[5mC]*e[5mC]*e[5mC]) [compound 147788]	95%
147789 (antisense eG*eG*eA*eA*eG*dA*dG*dG*dT*dG*dT*dT*dG*d[5mC]*dT*e[5mC]*e[5mC]*eT*eT*eG) [compound 147789]	24%
147790 (antisense eT*eG*eT*eG*e[5mC]*dT*dA*d[5mC]*d[5mC]*dA*dT*d[5mC]*d[5mC]*d[5mC]*dA*eT*eA*e[5mC]*eT*eT) [compound 147790]	33%
147792 (antisense eG*eG*eA*e[5mC]*eA*d[5mC]*d[5mC]*dT*d[5mC]*dA*dA*dT*d[5mC]*dA*dG*e[5mC]*eT*eG*eT*eG) [compound 147792]	26%
147794 (antisense eG*eT*eA*eA*eT*d[5mC]*dT*dT*d[5mC]*dA*dT*d[5mC]*d[5mC]*d[5mC]*d[5mC]*eA*eG*eT*eG*e[5mC]) [compound 147794]	47%
147796 (antisense eG*e[5mC]*eA*eG*e[5mC]*d[5mC]*dA*dG*dT*d[5mC]*dG*d[5mC]*dT*dT*dA*eT*e[5mC]*eT*e[5mC]*e[5mC]) [compound 147796]	8%
147801 (antisense e[5mC]*eA*eG*eA*e[5mC]*d[5mC]*d[5mC]*dG*dA*d[5mC]*dT*d[5mC]*dG*dT*dG*eG*eA*eA*eG*eA) [compound 147801]	38%
147806 (antisense eA*eT*eG*eT*eG*dG*dT*dA*dA*d[5mC]*dG*dA*dG*d[5mC]*d[5mC]*e[5mC]*eG*eA*eA*eG) [compound 147806]	100%
147807 (antisense eG*eG*e[5mC]*eG*eT*dA*dG*dA*dG*dA*d[5mC]*d[5mC]*d[5mC]*dA*dT*e[5mC]*eA*e[5mC]*eA*eT) [compound 147807]	25%
147809 (antisense e[5mC]*e[5mC]*e[5mC]*eA*eG*dT*dG*dA*dT*dA*dG*d[5mC]*dT*d[5mC]*dT*eG*eT*eG*eA*eG) [compound 147809]	60%

Substance	% INHIB
147810 (antisense eA*eT*eT*eT*e[5mC]*dA*dG*d[5mC]*dA*dT*dA*dT*dG*dA*dG*e[5mC]*e[5mC]*e[5mC]*eA*eT) [compound 147810]	0%
147814 (antisense e[5mC]*e[5mC]*e[5mC]*eA*eA*dT*dA*dA*dG*dA*dT*dT*dT*dA*dT*eA*eA*e[5mC]*eA*eA) [compound 147814]	34%
147815 (antisense eT*eG*eG*e[5mC]*e[5mC]*dT*dA*d[5mC]*d[5mC]*dA*dG*dA*dG*dA*d[5mC]*eA*eG*eG*eT*eA) [compound 147815]	45%
147816 (antisense eT*e[5mC]*eA*eT*eA*d[5mC]*dG*dT*dT*dT*dA*dG*d[5mC]*d[5mC]*d[5mC]*eA*eA*eT*e[5mC]*eT) [compound 147816]	100%
147817 (antisense eG*e[5mC]*eA*eT*eG*dG*dT*d[5mC]*d[5mC]*d[5mC]*dA*dA*dG*dG*dA*eT*eG*eG*eT*e[5mC]) [compound 147817]	0%
147818 (antisense eA*eG*eT*eG*eA*dT*dG*dG*dA*dA*dG*d[5mC]*dT*dG*d[5mC]*eG*eA*eT*eA*e[5mC]) [compound 147818]	30%
147820 (antisense eG*eA*eA*e[5mC]*eA*d[5mC]*dA*dT*dA*dG*d[5mC]*d[5mC]*dG*dA*dA*eT*eG*e[5mC]*e[5mC]*eG) [compound 147820]	100%
147823 (antisense eT*eG*e[5mC]*e[5mC]*e[5mC]*dT*dG*d[5mC]*dA*dG*d[5mC]*dT*dT*d[5mC]*dA*e[5mC]*eT*eG*eA*eA) [compound 147823]	19%
147825 (antisense eA*eG*eA*eA*eG*d[5mC]*dT*dG*d[5mC]*d[5mC]*dT*d[5mC]*dT*dT*d[5mC]*eT*eT*e[5mC]*e[5mC]*e[5mC]) [compound 147825]	72%
147826 (antisense eT*e[5mC]*eA*eG*eG*dG*dT*dG*dA*dG*d[5mC]*d[5mC]*d[5mC]*dT*dG*eT*eG*eT*eG*eT) [compound 147826]	80%
147827 (antisense e[5mC]*eT*eA*eA*eT*dG*dG*d[5mC]*d[5mC]*d[5mC]*d[5mC]*dT*dT*dG*dA*eT*eA*eA*eA*e[5mC]) [compound 147827]	13%
147828 (antisense eA*e[5mC]*eG*eT*eT*dA*dT*d[5mC]*d[5mC]*dT*dT*dG*dA*dG*dT*e[5mC]*e[5mC]*e[5mC]*eT*eG) [compound 147828]	12%
147829 (antisense eT*eA*eT*eA*eT*d[5mC]*d[5mC]*d[5mC]*dA*dG*dG*dT*dT*dT*d[5mC]*e[5mC]*e[5mC]*e[5mC]*eG*eG) [compound 147829]	64%
147831 (antisense e[5mC]*eT*eG*e[5mC]*e[5mC]*dT*dA*d[5mC]*dT*dG*d[5mC]*dA*dA*dG*dG*e[5mC]*eT*eG*eG*e[5mC]) [compound 147831]	0%
147833 (antisense eA*eT*eG*eA*eT*dA*d[5mC]*dA*d[5mC]*dA*dA*dT*dA*dA*dA*eG*eA*e[5mC]*eT*e[5mC]) [compound 147833]	25%

Same assay, conditions: Table 2; HepG2 cells, 50 nM

Substance	Percent Inhibition 50 nM
147788 (antisense eT*eT*eT*e[5mC]*eT*dG*dT*dT*dG*d[5mC]*d[5mC]*dA*d[5mC]*dA*dT*eT*eG*e[5mC]*e[5mC]*e[5mC]) [compound 147788]	54%
147806 (antisense eA*eT*eG*eT*eG*dG*dT*dA*dA*d[5mC]*dG*dA*dG*d[5mC]*d[5mC]*e[5mC]*eG*eA*eA*eG) [compound 147806]	23%
147816 (antisense eT*e[5mC]*eA*eT*eA*d[5mC]*dG*dT*dT*dT*dA*dG*d[5mC]*d[5mC]*d[5mC]*eA*eA*eT*e[5mC]*eT) [compound 147816]	25%
147820 (antisense eG*eA*eA*e[5mC]*eA*d[5mC]*dA*dT*dA*dG*d[5mC]*d[5mC]*dG*dA*dA*eT*eG*e[5mC]*e[5mC]*eG) [compound 147820]	10%

Same assay, conditions: Table 2; HepG2 cells, 150 nM

Substance	Percent Inhibition 150 nM
147788 (antisense eT*eT*eT*e[5mC]*eT*dG*dT*dT*dG*d[5mC]*d[5mC]*dA*d[5mC]*dA*dT*eT*eG*e[5mC]*e[5mC]*e[5mC]) [compound 147788]	63%
147806 (antisense eA*eT*eG*eT*eG*dG*dT*dA*dA*d[5mC]*dG*dA*dG*d[5mC]*d[5mC]*e[5mC]*eG*eA*eA*eG) [compound 147806]	45%
147816 (antisense eT*e[5mC]*eA*eT*eA*d[5mC]*dG*dT*dT*dT*dA*dG*d[5mC]*d[5mC]*d[5mC]*eA*eA*eT*e[5mC]*eT) [compound 147816]	81%
147820 (antisense eG*eA*eA*e[5mC]*eA*d[5mC]*dA*dT*dA*dG*d[5mC]*d[5mC]*dG*dA*dA*eT*eG*e[5mC]*e[5mC]*eG) [compound 147820]	0%

Same assay, conditions: Table 2; HepG2 cells, 250 nM

Substance	Percent Inhibition 250 nM
147788 (antisense eT*eT*eT*e[5mC]*eT*dG*dT*dT*dG*d[5mC]*d[5mC]*dA*d[5mC]*dA*dT*eT*eG*e[5mC]*e[5mC]*e[5mC]) [compound 147788]	72%
147806 (antisense eA*eT*eG*eT*eG*dG*dT*dA*dA*d[5mC]*dG*dA*dG*d[5mC]*d[5mC]*e[5mC]*eG*eA*eA*eG) [compound 147806]	28%
147816 (antisense eT*e[5mC]*eA*eT*eA*d[5mC]*dG*dT*dT*dT*dA*dG*d[5mC]*d[5mC]*d[5mC]*eA*eA*eT*e[5mC]*eT) [compound 147816]	65%
147820 (antisense eG*eA*eA*e[5mC]*eA*d[5mC]*dA*dT*dA*dG*d[5mC]*d[5mC]*dG*dA*dA*eT*eG*e[5mC]*e[5mC]*eG) [compound 147820]	73%
